Laboratory results from patent US20220395472A1 (Dermavant Sciences GmbH, priority 2021, published 2022).

Tested on: adults with plaque psoriasis
Test: Long-term open-label extension study (PSOARING 3): Physician Global Assessment (PGA), treatment episodes, treatment success, remittive effect
Format: in vivo, human
Description: This extension study consisted of up to 40 weeks of treatment and a 4 week, safety follow up period.
At the completion of the Week 12 visit of the DB, pivotal Phase 3 study, eligibility of the subjects opting to enroll in this extension study was confirmed. Study visits during the treatment period for all subjects occurred every 4 weeks (±3 days). A phone call was performed at Week 2 (Day 15). Unscheduled visits may have occurred, as needed. Subjects who withdrew from this study before Week 40 returned to the study center for an Early Termination visit. The total duration of this extension study participation was 44 weeks. Subjects in this study were treated as follows based on their PGA score from the Week 12 visit in the DB, pivotal Phase 3 study (Study DMVT 505 3001 or Study DMVT 505 3002).
The PGA was used to assess the primary efficacy endpoint in this study. The PGA is a clinical tool for assessing the current state/severity of a subject's psoriasis at a given time point. It is a static, 5 point, morphological assessment of overall disease severity, as determined by the Investigator, using the clinical characteristics of erythema, scaling, and plaque thickness/elevation as guidelines; higher PGA scores represent more severe disease (0=clear, 1=almost clear, 2=mild, 3=moderate, and 4=severe). The BSA affected was not considered in scoring of the PGA. Variations of the PGA are frequently used in clinical studies because it is a simple assessment, similar to those used in clinical practice. The PGA was performed first, prior to the % BSA, PASI, and LTS assessments.
Time to event parameters, such as the time from treatment success to subsequent worsening (PGA≥2) or duration of treatment episode, were summarized by the Kaplan Meier product limit method using OC.

[1] = Baseline PGA = 0, Tapinarof (Pivotal) group
[2] = Baseline PGA = 0, Vehicle (Pivotal) group

CC(C)c1c(O)cc(/C=C/c2ccccc2)cc1O [Tapinarof, 3,5-Dihydroxy-4-isopropyl-trans-stilbene]
Average Duration of Episodes, Mean (SD) (Baseline PGA = 0, Overall): 91.4 (66.93) days
Average Duration of Episodes, Median (Baseline PGA = 0, Overall): 63.0 days
Average Duration of Treatment Success, Mean (SD) (Baseline PGA = 0, Overall): 124.2 (87.66) days
Average Duration of Treatment Success, Median (Baseline PGA = 0, Overall): 98.0 days
Duration of 1st Episode, Mean (SD) (Baseline PGA = 0, Overall): 92.9 (67.74) days
Duration of 1st Episode, Median (Baseline PGA = 0, Overall): 65.0 days
Duration of 1st Success, Mean (SD) (Baseline PGA = 0, Overall): 125.1 (91.87) days
Duration of 1st Success, Median (Baseline PGA = 0, Overall): 112.0 days
Duration of 2nd Episode, Mean (SD) (Baseline PGA = 0, Overall): 44.1 (25.97) days
Duration of 2nd Episode, Median (Baseline PGA = 0, Overall): 42.0 days
Duration of 2nd Success, Mean (SD) (Baseline PGA = 0, Overall): 87.6 (67.05) days
Duration of 2nd Success, Median (Baseline PGA = 0, Overall): 71.0 days
Duration of 3rd Episode, Mean (SD) (Baseline PGA = 0, Overall): 61.0 (NE) days
Duration of 3rd Episode, Median (Baseline PGA = 0, Overall): 61.0 days
Duration of 3rd Success, Mean (SD) (Baseline PGA = 0, Overall): 33.0 (29.76) days
Duration of 3rd Success, Median (Baseline PGA = 0, Overall): 28.0 days
Duration of Last Episode, Mean (SD) (Baseline PGA = 0, Overall): 89.9 (68.95) days
Duration of Last Episode, Median (Baseline PGA = 0, Overall): 63.0 days
Duration of Last Success, Mean (SD) (Baseline PGA = 0, Overall): 121.6 (98.44) days
Duration of Last Success, Median (Baseline PGA = 0, Overall): 112.0 days
Total Duration of Treatment Episodes, Mean (SD) (Baseline PGA = 0, Overall): 109.2 (61.94) days
Total Duration of Treatment Episodes, Median (Baseline PGA = 0, Overall): 94.0 days
Total Duration of Treatment Success, Mean (SD) (Baseline PGA = 0, Overall): 167.9 (84.48) days
Total Duration of Treatment Success, Median (Baseline PGA = 0, Overall): 170.0 days
Average Duration of Episodes, Mean (SD) [1]: 90.2 (65.67) days
Average Duration of Episodes, Median [1]: 63.0 days
Average Duration of Treatment Success, Mean (SD) [1]: 119.7 (82.74) days
Average Duration of Treatment Success, Median [1]: 98.0 days
Duration of 1st Episode, Mean (SD) [1]: 91.7 (66.66) days
Duration of 1st Episode, Median [1]: 65.0 days
Duration of 1st Success, Mean (SD) [1]: 120.3 (87.83) days
Duration of 1st Success, Median [1]: 112.0 days
Duration of 2nd Episode, Mean (SD) [1]: 44.9 (26.43) days
Duration of 2nd Episode, Median [1]: 43.0 days
Duration of 2nd Success, Mean (SD) [1]: 89.1 (67.03) days
Duration of 2nd Success, Median [1]: 71.0 days
Duration of 3rd Episode, Mean (SD) [1]: 61.0 (NE) days
Duration of 3rd Episode, Median [1]: 61.0 days
Duration of 3rd Success, Mean (SD) [1]: 36.2 (29.31) days
Duration of 3rd Success, Median [1]: 28.5 days
Duration of Last Episode, Mean (SD) [1]: 88.8 (67.68) days
Duration of Last Episode, Median [1]: 63.0 days
Duration of Last Success, Mean (SD) [1]: 118.0 (93.58) days
Duration of Last Success, Median [1]: 112.0 days
Total Duration of Treatment Episodes, Median [1]: 94.0 days
Total Duration of Treatment Success, Mean (SD) [1]: 164.3 (82.24) days
Total Duration of Treatment Success, Median [1]: 168.0 days
Average Duration of Episodes, Mean (SD) [2]: 122.8 (124.80) days
Average Duration of Episodes, Median [2]: 122.8 days
Average Duration of Treatment Success, Mean (SD) [2]: 191.0 (136.91) days
Average Duration of Treatment Success, Median [2]: 280.0 days
Duration of 1st Episode, Mean (SD) [2]: 126.0 (120.21) days
Duration of 1st Episode, Median [2]: 126.0 days
Duration of 1st Success, Mean (SD) [2]: 195.2 (130.61) days
Duration of 1st Success, Median [2]: 280.0 days
Duration of 2nd Episode, Mean (SD) [2]: 28.0 (NE) days
Duration of 2nd Episode, Median [2]: 28.0 days
Duration of 2nd Success, Mean (SD) [2]: 63.5 (88.39) days
Duration of 2nd Success, Median [2]: 63.5 days
Duration of 3rd Success, Mean (SD) [2]: 1.0 (NE) days
Duration of 3rd Success, Median [2]: 1.0 days
Duration of Last Episode, Mean (SD) [2]: 119.5 (129.40) days
Duration of Last Episode, Median [2]: 119.5 days
Duration of Last Success, Mean (SD) [2]: 174.4 (158.72) days
Duration of Last Success, Median [2]: 280.0 days
Total Duration of Treatment Episodes, Mean (SD) [2]: 140.0 (100.41) days
Total Duration of Treatment Episodes, Median [2]: 140.0 days
Total Duration of Treatment Success, Mean (SD) [2]: 220.8 (109.21) days
Total Duration of Treatment Success, Median [2]: 280.0 days
Average Duration of Episodes, Mean (SD) (Baseline PGA = 1, Overall): 140.1 (95.01) days
Average Duration of Episodes, Median (Baseline PGA = 1, Overall): 112.0 days
Average Duration of Treatment Success, Median (Baseline PGA = 1, Overall): 98.0 days
Duration of 1st Episode, Mean (SD) (Baseline PGA = 1, Overall): 133.5 (100.06) days
Duration of 1st Episode, Median (Baseline PGA = 1, Overall): 87.0 days
Duration of 1st Success, Mean (SD) (Baseline PGA = 1, Overall): 107.2 (76.62) days
Duration of 1st Success, Median (Baseline PGA = 1, Overall): 90.0 days
Duration of 2nd Episode, Mean (SD) (Baseline PGA = 1, Overall): 98.4 (61.51) days
Duration of 2nd Episode, Median (Baseline PGA = 1, Overall): 85.0 days
Duration of 2nd Success, Mean (SD) (Baseline PGA = 1, Overall): 75.4 (59.40) days
Duration of 2nd Success, Median (Baseline PGA = 1, Overall): 56.0 days
Duration of 3rd Episode, Mean (SD) (Baseline PGA = 1, Overall): 54.9 (56.83) days
Duration of 3rd Episode, Median (Baseline PGA = 1, Overall): 28.0 days
